For 28 molecules, EC50 results are on record in patent US8580832B2, “Substituted phenoxy aminothiazolones as estrogen related receptor-α modulators” (Janssen Pharmaceutica N.V., priority 2007, dated 2013).

This test has as its target T1, ERR1 (also known as ERR-α or ERR-1) (Homo sapiens, UniProt P11474).
T1 construct: the ^6His-tagged-ERR1 LBD
T1 sequence (P11474 193-421 limits assumed): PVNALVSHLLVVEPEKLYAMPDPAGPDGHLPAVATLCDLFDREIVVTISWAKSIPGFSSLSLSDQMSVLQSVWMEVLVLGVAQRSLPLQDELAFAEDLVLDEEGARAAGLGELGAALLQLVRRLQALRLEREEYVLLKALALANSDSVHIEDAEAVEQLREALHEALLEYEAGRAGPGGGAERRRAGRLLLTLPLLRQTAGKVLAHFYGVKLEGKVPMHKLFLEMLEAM
Nature of the test: TR-FRET assay: disruption of co-activator peptide binding to ERR1 LBD. The test is classed as biochemical. Particulars: 6His-tagged ERR1 LBD 6 nM, GST-SRC-2 peptide 6 nM, 25° C., 4-18 hours; average of 3 independent experiments. In short, it runs like this:
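The 6His-ERR1 LBD and a GST-hSRC2 co-activator peptide were detected by α-GST Eu cryptate and α-6His-XL665 TR-FRET. Buffer was 25 mM Tris pH 8, 2.5 mM Hepes, 20 mM KCl, 1 mM DTT, 0.05 mg/mL BSA, equilibrated 4-18 h at 25° C. Dose-response curves were fitted hyperbolically and averaged over 3 independent experiments.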
(TR-FRET usually uses a lanthanide donor and a delayed reading to cut background.)
Take `N#Cc1ccc(Oc2ccc(/C=C3\SC(NCCn4cncn4)=NC3=O)cc2F)c(C(F)(F)F)c1` [Example 98, 4-{2-Fluoro-4-[4-oxo-2-(2-[1,2,4]triazol-1-yl-ethylamino)-4H-thiazol-5-ylidenemethyl]-phenoxy}-3-trifluoromethyl-benzonitrile]: the midpoint of the response, the EC50, lay at 17 nM.
In the case of `COC(=O)CNC1=NC(=O)/C(=C/c2ccc(Oc3ccc(C#N)cc3C(F)(F)F)c(OC)c2)S1` [Example 84, {5-[4-(4-Cyano-2-trifluoromethyl-phenoxy)-3-methoxy-benzylidene]-4-oxo-4,5-dihydro-thiazol-2-ylamino}-acetic acid methyl ester] it was 7 nM; in that of `COc1cc(/C=C2\SC(NCc3ccncc3)=NC2=O)ccc1Oc1ccc(C#N)cc1C(F)(F)F` [Compound 24, 4-(2-Methoxy-4-{4-oxo-2-[(pyridin-4-ylmethyl)-amino]-4H-thiazol-5-ylidenemethyl}-phenoxy)-3-trifluoromethyl-benzonitrile], 16 nM; in that of `N#Cc1ccc(Oc2ccc(/C=C3\SC(N4CCNC(=O)C4)=NC3=O)cc2F)c(C(F)(F)F)c1` [Example 47, 4-{2-Fluoro-4-[4-oxo-2-(3-oxo-piperazin-1-yl)-4H-thiazol-5-ylidenemethyl]-phenoxy}-3-trifluoromethyl-benzonitrile], 19 nM.
In the case of `COc1cc(/C=C2\SC(NCCn3cncn3)=NC2=O)ccc1Oc1ccc(C#N)cc1C(F)(F)F` [Example 72, 4-{2-Methoxy-4-[4-oxo-2-(2-[1,2,4]triazol-1-yl-ethylamino)-4H-thiazol-5-ylidenemethyl]-phenoxy}-3-trifluoromethyl-benzonitrile], the midpoint of the response, the EC50, lay at 16 nM.
In the case of `COc1cc(/C=C2\SC(N3CCN(CCO)CC3)=NC2=O)ccc1Oc1ccc(C#N)cc1C(F)(F)F` [Compound 16, 4-(4-{2-[4-(2-Hydroxy-ethyl)-piperazin-1-yl]-4-oxo-4H-thiazol-5-ylidenemethyl}-2-methoxy-phenoxy)-3-trifluoromethyl-benzonitrile] it was 19 nM; in that of `COc1cc(/C=C2\SC(N3CCCC(O)C3)=NC2=O)ccc1Oc1ccc(C(N)=O)cc1C(F)(F)F` (stereo not shown) [Example 114, 4-{4-[2-(3-Hydroxy-piperidin-1-yl)-4-oxo-4H-thiazol-5-ylidenemethyl]-2-methoxy-phenoxy}-3-trifluoromethyl-benzamide], 300 nM.
As for `COc1cc(/C=C2\SC(N(CCO)CCO)=NC2=O)ccc1Oc1ccc(C(F)(F)F)cc1C(F)(F)F` [Example 117, 2-[Bis-(2-hydroxy-ethyl)-amino]-5-[4-(2,4-bis-trifluoromethyl-phenoxy)-3-methoxy-benzylidene]-thiazol-4-one], the figure is 40 nM; as for `COC(=O)CC1CCN(C2=NC(=O)/C(=C/c3ccc(Oc4ccc(C#N)cc4C(F)(F)F)c(OC)c3)S2)CC1` [Example 83, (1-{5-[4-(4-Cyano-2-trifluoromethyl-phenoxy)-3-methoxy-benzylidene]-4-oxo-4,5-dihydro-thiazol-2-yl}-piperidin-4-yl)-acetic acid methyl ester], 26 nM; as for `CN(C)CCCNC1=NC(=O)/C(=C/c2ccc(Oc3ccc(C#N)cc3C(F)(F)F)c(F)c2)S1` [Example 48, 4-{4-[2-(3-Dimethylamino-propylamino)-4-oxo-4H-thiazol-5-ylidenemethyl]-2-fluoro-phenoxy}-3-trifluoromethyl-benzonitrile], 9 nM.
On to `CCOc1cc(/C=C2\SC(N(CCO)CCO)=NC2=O)ccc1Oc1ccc(C#N)cc1C(F)(F)F` [Example 56, 4-(4-{2-[Bis-(2-hydroxy-ethyl)-amino]-4-oxo-4H-thiazol-5-ylidenemethyl}-2-ethoxy-phenoxy)-3-trifluoromethyl-benzonitrile], for which the response was half-maximal at 150 nM (EC50). Compared with the last molecule, the EC50 is about 17-fold higher.
Consider `COC(=O)c1ccc(Oc2ccc(/C=C3\SC(N4CCC(C(=O)OC)CC4)=NC3=O)cc2OC)c(C(F)(F)F)c1` [Example 113, 1-{5-[3-Methoxy-4-(4-methoxycarbonyl-2-trifluoromethyl-phenoxy)-benzylidene]-4-oxo-4,5-dihydro-thiazol-2-yl}-piperidine-4-carboxylic acid methyl ester], for which the EC50 (as a rule, the concentration at which the effect is half-maximal) turned out to be 14 nM.
In turn, `COc1cc(/C=C2\SC(N3CCC(C(N)=O)CC3)=NC2=O)ccc1Oc1ccc(C#N)cc1C(F)(F)F` [Example 78, 1-{5-[4-(4-Cyano-2-trifluoromethyl-phenoxy)-3-methoxy-benzylidene]-4-oxo-4,5-dihydro-thiazol-2-yl}-piperidine-4-carboxylic acid amide] gave a half-maximal effective concentration (EC50) of 14 nM.
As for `COc1cc(/C=C2\SC(NCCC3CCOCC3)=NC2=O)ccc1Oc1ccc(C#N)cc1C(F)(F)F` [Example 109, 4-(2-Methoxy-4-{4-oxo-2-[2-(tetrahydro-pyran-4-yl)-ethylamino]-4H-thiazol-5-ylidenemethyl}-phenoxy)-3-trifluoromethyl-benzonitrile], the midpoint of the response, the EC50, lay at 5 nM.
Turning to `CCS(=O)(=O)N1CCN(C2=NC(=O)/C(=C/c3ccc(Oc4ccc(C#N)cc4C(F)(F)F)c(F)c3)S2)CC1` [Example 44, 4-{4-[2-(4-Ethanesulfonyl-piperazin-1-yl)-4-oxo-4H-thiazol-5-ylidenemethyl]-2-fluoro-phenoxy}-3-trifluoromethyl-benzonitrile], it took 68 nM to reach a half-maximal effect (EC50).
The molecule `COc1cc(/C=C2\SC(N3CCNC(=O)C3)=NC2=O)ccc1Oc1ccc(Cl)cc1C(F)(F)F` [Example 61, 4-{5-[4-(4-Chloro-2-trifluoromethyl-phenoxy)-3-methoxy-benzylidene]-4-oxo-4,5-dihydro-thiazol-2-yl}-piperazin-2-one] registered an EC50 of 1 nM.
`N#Cc1ccc(Oc2ccc(/C=C3\SC(N4CCC(O)C4)=NC3=O)cc2F)c(C(F)(F)F)c1` (stereo not shown) [Example 45, 4-{2-Fluoro-4-[2-(3-hydroxy-pyrrolidin-1-yl)-4-oxo-4H-thiazol-5-ylidenemethyl]-phenoxy}-3-trifluoromethyl-benzonitrile] gave an EC50 of 39 nM.
Turning to `CN1CCN(CCNC2=NC(=O)/C(=C/c3ccc(Oc4ccc(C#N)cc4C(F)(F)F)c(F)c3)S2)CC1` [Example 104, 4-(2-Fluoro-4-{2-[2-(4-methyl-piperazin-1-yl)-ethylamino]-4-oxo-4H-thiazol-5-ylidenemethyl}-phenoxy)-3-trifluoromethyl-benzonitrile], the EC50 was 22 nM.
`COc1cc(/C=C2\SC(NCCF)=NC2=O)ccc1Oc1ccc(C#N)cc1C(F)(F)F` [Example 91, 4-{4-[2-(2-Fluoro-ethylamino)-4-oxo-4H-thiazol-5-ylidenemethyl]-2-methoxy-phenoxy}-3-trifluoromethyl-benzonitrile] came in with an EC50 of 9 nM.
As for `COc1cc(/C=C2\SC(N3CC(C(=O)O)C3)=NC2=O)ccc1Oc1ccc(C#N)cc1C(F)(F)F` [Example 106, 1-{5-[4-(4-Cyano-2-trifluoromethyl-phenoxy)-3-methoxy-benzylidene]-4-oxo-4,5-dihydro-thiazol-2-yl}-azetidine-3-carboxylic acid], the figure is 3 nM; as for `N#Cc1ccc(Oc2ccc(/C=C3\SC(N)=NC3=O)cc2F)c2ccccc12` [Compound 4, 4-[2-Fluoro-4-(2-imino-4-oxo-thiazolidin-5-ylidenemethyl)-phenoxy]-naphthalene-1-carbonitrile], 18 nM; as for `COc1cc(/C=C2\SC(NCCc3ccncc3)=NC2=O)ccc1Oc1ccc(C#N)cc1C(F)(F)F` [Example 28, 4-{2-Methoxy-4-[4-oxo-2-(2-pyridin-4-yl-ethylamino)-4H-thiazol-5-ylidenemethyl]-phenoxy}-3-trifluoromethyl-benzonitrile], 7 nM.
As for `COc1cc(/C=C2\SC(N3CCNC(=O)C3)=NC2=O)ccc1Oc1ccc(C(N)=O)cc1C(F)(F)F` [Example 115, 4-{2-Methoxy-4-[4-oxo-2-(3-oxo-piperazin-1-yl)-4H-thiazol-5-ylidenemethyl]-phenoxy}-3-trifluoromethyl-benzamide], the figure is 89 nM; as for `COc1cc(/C=C2\SC(NC3CCN(CCO)CC3)=NC2=O)ccc1Oc1ccc(C#N)cc1C(F)(F)F` [Example 111, 4-(4-{2-[1-(2-Hydroxy-ethyl)-piperidin-4-ylamino]-4-oxo-4H-thiazol-5-ylidenemethyl}-2-methoxy-phenoxy)-3-trifluoromethyl-benzonitrile], 15 nM; as for `COc1cc(/C=C2\SC(N3CCCC(O)C3)=NC2=O)ccc1Oc1ccc(C#N)cc1C(F)(F)F` (stereo not shown) [Example 102, 4-{4-[2-(3-Hydroxy-piperidin-1-yl)-4-oxo-4H-thiazol-5-ylidenemethyl]-2-methoxy-phenoxy}-3-trifluoromethyl-benzonitrile], 29 nM.
As for `COc1cc(/C=C2\SC(NC3CCN(C)CC3)=NC2=O)ccc1Oc1ccc(C#N)cc1C(F)(F)F` [Compound 14, 4-{2-Methoxy-4-[2-(1-methyl-piperidin-4-ylamino)-4-oxo-4H-thiazol-5-ylidenemethyl]-phenoxy}-3-trifluoromethyl-benzonitrile], the figure is 13 nM.
For `COc1cc(/C=C2\SC(N3CC(C)OC(C)C3)=NC2=O)ccc1Oc1ccc(C#N)cc1C(F)(F)F` (stereo not shown) [Example 40, 4-{4-[2-(2,6-Dimethyl-morpholin-4-yl)-4-oxo-4H-thiazol-5-ylidenemethyl]-2-methoxy-phenoxy}-3-trifluoromethyl-benzonitrile], the EC50 was 7 nM. Compared with the last molecule, the EC50 is about 1.9-fold lower.
In turn, `N#Cc1ccc(Oc2ccc(/C=C3\SC(N4CC(C(=O)O)C4)=NC3=O)cc2F)c(C(F)(F)F)c1` [Example 116, 1-{5-[4-(4-Cyano-2-trifluoromethyl-phenoxy)-3-fluoro-benzylidene]-4-oxo-4,5-dihydro-thiazol-2-yl}-azetidine-3-carboxylic acid] registered an EC50 of 34 nM.
